Results: patent US20220256854A1, “PLANT TREATMENT COMPOSITION” (Croda International Plc, priority 2019, published 2022)

How the values were obtained:
Format in all cases: in vivo
weed species [1] = assay: Field trial, glyphosate with K formulation, weed control (Example 5, Study 1); conditions: Glyphosate @ 2 l/ha, no formulation
Method: (§1) Three studies were conducted to evaluate the effect of a K formulation on glyphosate efficacy, as measured by the control of weed species.
Study 1. The trial was designed as a randomized complete block with two replications of five treatments (Table 11). The trial was planted at one location in Brazil during 2011. Weed control was assessed 14 and 25 daa.

Euphorbia heterophylla = assay: Field trial, glyphosate with Formulation A, weed control (Example 3); conditions: Formulation A @ 1 l/ha where applied, mean of 7, 14, 28 daa
Method: (§2) A study was conducted to evaluate the effect of an Mn formulation on glyphosate efficacy, as measured by the control of individual grass and broadleaf weed species.
(§3) The trial was designed as a randomized complete block with three replications of four treatments (Table 7). The trial was planted at one location in Brazil during March 2016. Weed control was assessed 7, 14, and 28 daa.

Brachiaria plantaginea [2] = assay: as above; conditions: Formulation A @ 1 l/ha where applied, mean of 7, 14, 28 daa
Method: as §2, §3

Amaranthus retroflexus = assay: as above; conditions: Formulation A @ 1 l/ha where applied, mean of 7, 14, 28 daa
Method: as §2, §3

Brachiaria decumbens [3] = assay: as above; conditions: Formulation A @ 1 l/ha where applied, mean of 7, 14, 28 daa
Method: as §2, §3

Ipomoea acuminate [4] = assay: as above; conditions: Formulation A @ 1 l/ha where applied, mean of 7, 14, 28 daa
Method: as §2, §3

Cenchrus echinatus [5] = assay: as above; conditions: Formulation A @ 1 l/ha where applied, mean of 7, 14, 28 daa
Method: as §2, §3

Digitaria horizontalis [6] = assay: as above; conditions: Formulation A @ 1 l/ha where applied, mean of 7, 14, 28 daa
Method: as §2, §3

Broadleaf weeds = assay: Field trial, glyphosate with Mn formulation, control of broadleaf weeds (Example 2); conditions: glyphosate 1 l/ha; V2 soybean growth stage; 7 daa; six locations in Brazil
Method: (§4) A study was carried out to evaluate the effect of an Mn formulation on the efficacy of glyphosate, as measured by the control of broadleaf and grass weed species.
(§5) The trial was designed as a randomized complete block with six replications of five treatments (Table 5). The trial was planted at each of six locations in Brazil during the 2015 season. All treatments were applied at the V2 soybean growth stage using backpack sprayers. Soybeans were sown at a rate consistent with locally recommended practices into plots that were approximately 4 m long and 5 m wide.
(§6) Data collected from a 1 m^2 area of each plot included the number of broadleaf and grass weeds, by genus and species, at the V2 soybean growth stage immediately prior to treatment application. The number of dead/damaged and undamaged weeds, by genus and species, was collected from the same 1 m^2 area of each plot 7 daa of a treatment. Treatment 2 (glyphosate alone) was used as the control.

weed species [7] = assay: Field trial, glyphosate with K formulation, weed control (Example 5, Study 2); conditions: Glyphosate @ 2 l/ha, Formulation @ 5 l/ha where applied
Method: as §1
Study 2. The trial was designed as a randomized complete block with two replications of six treatments (Table 13). The trial was planted at one location in Brazil during 2011. Weed control was assessed 14 and 25 daa.

Grass weeds = assay: Field trial, glyphosate with Mn formulation, control of grass weeds (Example 2); conditions: glyphosate 1 l/ha; V2 soybean growth stage; 7 daa; six locations in Brazil
Method: as §4, §5, §6

[8] = system: individual grass and broadleaf weed species; assay: Field trial, glyphosate with Formulation A, weed control, average over seven weed species (Example 3); conditions: Formulation A @ 1 l/ha where applied, average of seven weed species
Method: as §2, §3

Brachiaria decumbens [9] = assay: Glyphosate absorption in Brachiaria decumbens with Mn formulations (Example 1, Study 2); conditions: glyphosate 3.5 l/ha; Mn formulation at 100 g/ha Mn where applied; four days after application
Method: (§7) Studies were conducted to evaluate the effect of an Mn formulation containing manganese on the absorption of glufosinate (Study 1) and glyphosate (Study 2) using Brachiaria decumbens as a model weed species.
Study 2. Seed of Brachiaria decumbens were planted into pots in a greenhouse during January 2015. This experiment was designed as a randomized complete block with six replications. Each plant was sprayed in a spray chamber with one of six treatments (Table 3) 25 days after planting.
The amount of glyphosate on the plant surface (not absorbed) and that penetrated plant tissue (absorbed) was measured four days after application (daa) of a treatment using chromatography and spectrometry.

weed species [10] = assay: Field trial, glyphosate with K formulation, weed control (Example 5, Study 3); conditions: Glyphosate @ 2 l/ha, Formulation @ 5 l/ha where applied
Method: as §1
Study 3. The trial was designed as a randomized complete block with two replications of six treatments (Table 15). The trial was planted at one location in Brazil during 2011. Weed control was assessed 14 and 25 daa.

Brachiaria plantaginea [11] = assay: Field trial, glufosinate with Formulation A, weed control (Example 4); conditions: Formulation A @ 1 l/ha where applied, mean of 7, 14, 28 daa
Method: (§8) A study was conducted to evaluate the effect of an Mn formulation on glufosinate efficacy, as measured by the control of individual grass and broadleaf weed species.
(§9) The trial was designed as a randomized complete block with three replications of four treatments (Table 9). The trial was planted at one location in Brazil during March 2016. Weed control was assessed 7, 14, and 28 daa.

Brachiaria decumbens [12] = assay: as above; conditions: Formulation A @ 1 l/ha where applied, mean of 7, 14, 28 daa
Method: as §8, §9

Ipomoea acuminate [13] = assay: as above; conditions: Formulation A @ 1 l/ha where applied, mean of 7, 14, 28 daa
Method: as §8, §9

Cenchrus echinatus [14] = assay: as above; conditions: Formulation A @ 1 l/ha where applied, mean of 7, 14, 28 daa
Method: as §8, §9

Digitaria horizontalis [15] = assay: as above; conditions: Formulation A @ 1 l/ha where applied, mean of 7, 14, 28 daa
Method: as §8, §9

[16] = system: individual grass and broadleaf weed species; assay: Field trial, glufosinate with Formulation A, weed control, average over five weed species (Example 4); conditions: Formulation A @ 1 l/ha where applied, average of five weed species
Method: as §8, §9

Brachiaria decumbens [17] = assay: Glufosinate absorption in Brachiaria decumbens with Mn formulations (Example 1, Study 1); conditions: glufosinate 2 l/ha; Mn formulation at 100 g/ha Mn where applied; 36 hours after application
Method: as §7
Study 1. Seed of Brachiaria decumbens were planted into pots in a greenhouse during January 2015. This experiment was designed as a randomized complete block with six replications. Each plant was sprayed in a spray chamber with one of six treatments (Table 1) 19 days after planting.
The amount of glufosinate on the plant surface (not absorbed) and that penetrated plant tissue (absorbed) was measured 36 hours after application of a treatment using chromatography and spectrometry.

SMILES: O=C(O)CNCP(=O)(O)O [Glyphosate, glyphosate]
- Weed control (%) 14 daa (weed species [1]; 14 daa): 85%
- Weed control (%) 25 daa (weed species [1]; 25 daa): 96.5%
- Weed control (%) EPHHL (Euphorbia heterophylla; Glyphosate @ 1 l/ha): 65.4%
- Weed control (%) EPHHL (Euphorbia heterophylla; Glyphosate @ 2 l/ha): 77.4%
- Weed control (%) BRAPL (Brachiaria plantaginea [2]; Glyphosate @ 1 l/ha): 91.2%
- Weed control (%) BRAPL (Brachiaria plantaginea [2]; Glyphosate @ 2 l/ha): 95.9%
- Weed control (%) AMARE (Amaranthus retroflexus; Glyphosate @ 1 l/ha): 69.6%
- Weed control (%) AMARE (Amaranthus retroflexus; Glyphosate @ 2 l/ha): 84.7%
- Weed control (%) BRADC (Brachiaria decumbens [3]; Glyphosate @ 1 l/ha): 83.0%
- Weed control (%) BRADC (Brachiaria decumbens [3]; Glyphosate @ 2 l/ha): 90.2%
- Weed control (%) IPOA (Ipomoea acuminate [4]; Glyphosate @ 1 l/ha): 34.8%
- Weed control (%) IPOA (Ipomoea acuminate [4]; Glyphosate @ 2 l/ha): 52.6%
- Weed control (%) CCHEC (Cenchrus echinatus [5]; Glyphosate @ 1 l/ha): 95.0%
- Weed control (%) CCHEC (Cenchrus echinatus [5]; Glyphosate @ 2 l/ha): 98.7%
- Weed control (%) DIGHO (Digitaria horizontalis [6]; Glyphosate @ 1 l/ha): 96.3%
- Weed control (%) DIGHO (Digitaria horizontalis [6]; Glyphosate @ 2 l/ha): 99.0%
- Weed control (%) Broadleaf weeds (Broadleaf weeds): 83.8%
- Weed control (%) 14 daa (weed species [7]; 14 daa): 82.5%
- Weed control (%) 25 daa (weed species [7]; 25 daa): 96.5%
- Weed control (%) Grass weeds (Grass weeds): 97.7%
- Weed control (%) Ave ([8]; Glyphosate @ 1 l/ha): 76.5%
- Weed control (%) Ave ([8]; Glyphosate @ 2 l/ha): 85.5%
- Glyphosate Absorbed (%) (Brachiaria decumbens [9]): 21.0%
- Weed control (%) 14 daa (weed species [10]; 14 daa): 85%
- Weed control (%) 25 daa (weed species [10]; 25 daa): 90%

SMILES: CP(=O)(O)CCC(N)C(=O)O (centres unmarked) [Glufosinate, glufosinate]
- Weed control (%) BRAPL (Brachiaria plantaginea [11]; Glufosinate @ 1.5 l/ha): 78.6%
- Weed control (%) BRAPL (Brachiaria plantaginea [11]; Glufosinate @ 2.5 l/ha): 88.2%
- Weed control (%) BRADC (Brachiaria decumbens [12]; Glufosinate @ 1.5 l/ha): 89.3%
- Weed control (%) BRADC (Brachiaria decumbens [12]; Glufosinate @ 2.5 l/ha): 91.1%
- Weed control (%) IPOAC (Ipomoea acuminate [13]; Glufosinate @ 1.5 l/ha): 96.7%
- Weed control (%) IPOAC (Ipomoea acuminate [13]; Glufosinate @ 2.5 l/ha): 100.0%
- Weed control (%) CCHEC (Cenchrus echinatus [14]; Glufosinate @ 1.5 l/ha): 62.8%
- Weed control (%) CCHEC (Cenchrus echinatus [14]; Glufosinate @ 2.5 l/ha): 78.7%
- Weed control (%) DIGHO (Digitaria horizontalis [15]; Glufosinate @ 1.5 l/ha): 67.0%
- Weed control (%) DIGHO (Digitaria horizontalis [15]; Glufosinate @ 2.5 l/ha): 82.9%
- Weed control (%) Ave ([16]; Glufosinate @ 1.5 l/ha): 78.9%
- Weed control (%) Ave ([16]; Glufosinate @ 2.5 l/ha): 88.2%
- Glufosinate Absorbed (%) (Brachiaria decumbens [17]): 24.0%
